Target: angiotensin-converting enzyme (ACE) (UniProt P12822)
Assay: Test of effect of inhibiting angiotensin-converting enzyme (Hippuryl-His-Leu substrate, hippuric acid measured by HPLC)
Format: biochemical
Experimental: [Test Example 1] Test of Effect of Inhibiting Angiotensin-Converting Enzyme Conducted on Compound (I)
The effect of inhibiting an angiotensin-converting enzyme was tested on the compound (I) (sample 1) as explained below.
A sample solution (sample 1), obtained by suitably dissolving in and diluting with distilled water, and distilled water respectively in an amount of 50 μL were dispensed into test tubes (10 mL). A substrate solution was dispensed respectively in an amount of 250 μL and mixed. The test tubes were preheated in a thermostatic water-tank at 37° C. for 5 minutes. The preheated test tubes were added with an ACE solution in an amount of 100 μL, agitated immediately and brought to react in the thermostatic water-tank at 37° C. for 45 minutes. After the reaction finished, 3% metaphosphate solution in an amount of 3.6 mL was added and agitated to end reaction. The inactivated solution was subjected to HPLC analysis and isolated hippuric acid was measured. Based on a hippuric acid peak area and solid amount (concentration and weighed amount) from the HPLC, an ACE inhibition rate (%) was obtained.
A substrate solution was prepared to obtain a boric acid buffering solution (pH 8.3) with 8 mM substrate (Hippuryl-His-Leu produced by PEPTIDE INSTITUTE, INC.) and 640 mM sodium chloride. An ACE solution was prepared to obtain a boric acid buffering solution with 30 mU/mL ACE (produced by Sigma-Aldrich Co. LLC).
<Liquid Chromatography Condition >
Column: Wakosil-II 5C18 HG (4.5mm I.D.×150mm produced by Wako Pure Chemical Industries, Ltd.)
• Column Temperature: 40° C. • Mobile Phase: 20 mM KH2PO4·H3PO4 (pH 3.0): Methanol (57:43, v/v) • Flow Rate: 1.0 mL/min. • Detection Wavelength: 228 nm • Feed Amount: 20 μL

angiotensin-converting enzyme (ACE), sequence (P12822 whole entry): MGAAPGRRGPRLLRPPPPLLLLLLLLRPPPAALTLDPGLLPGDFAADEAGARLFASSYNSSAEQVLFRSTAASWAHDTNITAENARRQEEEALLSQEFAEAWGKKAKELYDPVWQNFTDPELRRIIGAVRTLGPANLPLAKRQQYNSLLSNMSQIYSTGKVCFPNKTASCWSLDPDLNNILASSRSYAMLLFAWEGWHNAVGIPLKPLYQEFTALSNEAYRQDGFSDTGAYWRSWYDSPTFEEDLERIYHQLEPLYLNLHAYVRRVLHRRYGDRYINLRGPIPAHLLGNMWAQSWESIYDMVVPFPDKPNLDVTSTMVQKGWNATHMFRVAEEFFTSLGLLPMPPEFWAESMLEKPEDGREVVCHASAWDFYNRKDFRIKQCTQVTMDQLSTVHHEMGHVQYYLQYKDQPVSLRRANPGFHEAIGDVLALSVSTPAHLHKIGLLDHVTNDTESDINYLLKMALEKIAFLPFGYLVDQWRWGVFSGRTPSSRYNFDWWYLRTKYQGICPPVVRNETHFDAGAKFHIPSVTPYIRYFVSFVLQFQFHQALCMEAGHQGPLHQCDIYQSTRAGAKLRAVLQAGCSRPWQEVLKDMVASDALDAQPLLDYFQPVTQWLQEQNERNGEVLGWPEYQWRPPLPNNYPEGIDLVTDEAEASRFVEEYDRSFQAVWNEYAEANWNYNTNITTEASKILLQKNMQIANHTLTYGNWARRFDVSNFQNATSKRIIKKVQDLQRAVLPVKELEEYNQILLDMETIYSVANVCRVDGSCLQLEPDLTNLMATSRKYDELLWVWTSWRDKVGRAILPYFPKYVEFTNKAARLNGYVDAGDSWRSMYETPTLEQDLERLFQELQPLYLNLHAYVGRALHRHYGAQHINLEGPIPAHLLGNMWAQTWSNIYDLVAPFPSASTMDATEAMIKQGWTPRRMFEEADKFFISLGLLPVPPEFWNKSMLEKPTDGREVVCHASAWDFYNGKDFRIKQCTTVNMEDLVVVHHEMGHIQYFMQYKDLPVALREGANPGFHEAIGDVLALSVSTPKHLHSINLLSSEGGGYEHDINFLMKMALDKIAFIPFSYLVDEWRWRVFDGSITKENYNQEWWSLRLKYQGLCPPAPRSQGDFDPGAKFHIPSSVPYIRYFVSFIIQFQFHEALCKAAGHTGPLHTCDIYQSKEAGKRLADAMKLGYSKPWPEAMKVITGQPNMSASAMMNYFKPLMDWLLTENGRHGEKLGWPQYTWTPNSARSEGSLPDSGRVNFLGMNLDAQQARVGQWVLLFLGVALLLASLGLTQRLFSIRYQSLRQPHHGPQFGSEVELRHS

Compound: COc1cc(CCC(=O)O)ccc1O [compound (I), 3-(4-hydroxy-3-methoxyphenyl)propionic acid]
- IC50 (37° C., 45 minutes reaction, read-out: IC50 (concentration of the sample in the reaction solution exhibiting an ACE inhibition rate of 50%) (converted)): 10.9 mM
- ACE Inhibition Rate (sample concentration 943.25 μg/mL): 21.6%
- ACE Inhibition Rate (sample concentration 1886.50 μg/mL): 41.1%
- ACE Inhibition Rate (sample concentration 3773.00 μg/mL): 73.2%
